This note sets out measurements from patent US10220034B2, “Hepatitis B viral assembly effectors” (Indiana University Research and Technology Corp., priority 2013, dated 2019).

Each structure is given as a SMILES string.

In one experiment the test system is HBV Cp. Put plainly: Capsid assembly assay (fluorescence quenching). The following applies: 10 μM compound, control reactions with no drug show 25±5% assembly.
For another experiment, the system named is AD38 cells. Put plainly: Activity of test compounds on viral production from AD38 cells (qPCR viral load). The arrangement: key: (+) depicting meets criteria for significant activity; (++) depicting exceeds criteria. The conditions noted are these: 5 days, supernatant qPCR. Format: cell-based, HBV. The protocol: AD38 cells grown in a 175 cm flash with Growth Medium (DMEM/F12 (1:1) (cat#SH30023.01, Hyclone, 1× Pen/step (cat#: 30-002-CL, Mediatech, Inc), 10% FBS (cat#: 101, Tissue Culture Biologics), 250 μg/mL G418 (cat#: 30-234-CR, Mediatech, Inc), 1 μg/mL Tetracycline (cat#: T3325, Teknova)) were detached with 0.25% trypsin. Tetracycline-free treatment medium (15 mL DMEM/F12 (1:1) (cat#SH30023.01, Hyclone, 1× Pen/step (cat#: 30-002-CL, Mediatech, Inc), with 2% FBS, Tet-system approved (cat#: 631106, Clontech) were then added to mix and spun at 1300 rpm for 5 min. Pelleted cells were then re-suspended/washed with 50 mL of 1×PBS 2 times and 10 mL treatment medium one time. AD38 cells were then re-suspended with 10 mL of treatment medium and counted. Wells of a collagen coated 96-well NUNC microtiter plate were seeded at 50,000/well in 180 μL of treatment medium, and 20 μL of either 10% DMSO (Control) or a 10× solution of test compound in 10% DMSO in treatment media was added for as final compound concentration 1, 3, or 10 μM (1.0% final [DMSO]) and plates were incubated for 5 days at 37° C.
Subsequently viral load production was assayed by quantitative PCR of the core sequence. Briefly, 5 μL of clarified supernatant was added to a PCR reaction mixture that contained forward primers HBV-f 5′-[…]-3′, Reverse primers HBV-r 5′-[…]-3′ and Fluorescent TaqMan™ Probes HBV-probe 5′-FAM/[…]/ZEN/[…]/31ABkFQ-3′ in Quanta Biosciences PerfeCTa® qPCR Toughmix®, and was subsequently on an Applied Biosystems VIIA7 in a final volume of 20 μL. The PCR mixture was incubated at 45° C. for 5 minutes, then 95° C. for 10 min, followed by 40 cycles of 10 seconds at 95° C. and 20 seconds at 60° C. Viral load was quantitated against known standards by using ViiA™ 7 Software. Viral load in the supernatant from wells with treated cells were compared against viral load in supernatant from DMSO control wells (≥3 per plate). In Table 4, concentrations of test compound causing reductions in viral load greater than at least 3 standard deviations from the DMSO controls across all plates were considered active, with (+) depicting meets criteria for significant activity, and (++) depicting exceeds criteria.

With `CCc1ccc(S(=O)(=O)N2CCN(c3nc(C)cc(Nc4ccc(C)cc4)n3)CC2)cc1` [compound 5], the “% Capsid formation at 24 h (10 μM)” value in the experiment on HBV Cp is 91%. Moreover, the “reduction in viral load vs DMSO controls” value in the experiment on AD38 cells (test concentration 3 μM) and with AD38 cells (test concentration 10 μM) was “++” each time.
On to `CCOc1ccc(S(=O)(=O)N2CCN(c3nc(C)cc(Nc4ccc(C)cc4)n3)CC2)cc1` [compound 8], for which the “% Capsid formation at 24 h (10 μM)” value with HBV Cp came out at 98%. The “reduction in viral load vs DMSO controls” value in the experiment with AD38 cells (test concentration 3 μM) and in the experiment on AD38 cells (test concentration 10 μM) was “++” throughout.
As to `CCc1ccc(Nc2cc(C)nc(N3CCN(S(=O)(=O)c4ccc(OC)cc4)CC3)n2)cc1` [compound 35], the “% Capsid formation at 24 h (10 μM)” value with HBV Cp is 81%. Moreover, the “reduction in viral load vs DMSO controls” value in the experiment with AD38 cells (test concentration 1 μM), in the experiment with AD38 cells (test concentration 3 μM) and in the experiment on AD38 cells (test concentration 10 μM) was “++” each time.
Regarding `Cc1ccc(Nc2cc(C)nc(N3CCN(S(=O)(=O)c4ccc(C(C)C)cc4)CC3)n2)cc1` [compound 6], the “% Capsid formation at 24 h (10 μM)” value with HBV Cp stood at 92%. Besides, the “reduction in viral load vs DMSO controls” value in the experiment on AD38 cells (test concentration 3 μM) and in the experiment on AD38 cells (test concentration 10 μM) was “++” in each case.
For the compound `CCc1cc(Nc2ccc(C)cc2)nc(N2CCN(S(=O)(=O)c3ccc(OC)cc3)CC2)n1` [compound 29], the “% Capsid formation at 24 h (10 μM)” value in the experiment on HBV Cp was 94%. Besides, the “reduction in viral load vs DMSO controls” value in the experiment with AD38 cells (test concentration 1 μM), in the experiment with AD38 cells (test concentration 3 μM) and in the experiment on AD38 cells (test concentration 10 μM) was “++” each time.
Consider `Cc1ccc(Nc2cc(C)nc(N3CCN(S(=O)(=O)c4ccc(C)cc4)CC3)n2)cc1` [compound 1], for which the “% Capsid formation at 24 h (10 μM)” value in the experiment on HBV Cp is listed as 95%. The “reduction in viral load vs DMSO controls” value with AD38 cells (test concentration 3 μM) and with AD38 cells (test concentration 10 μM) was “++” in each case.
As to `Cc1ccc(Nc2cc(C)nc(N3CCN(S(=O)(=O)c4ccc(N(C)C)cc4)CC3)n2)cc1` [compound 23], in the experiment with HBV Cp, the “% Capsid formation at 24 h (10 μM)” value is 88%. The “reduction in viral load vs DMSO controls” value was “+” with AD38 cells (test concentration 1 μM), “++” with AD38 cells (test concentration 3 μM) and “++” in the experiment with AD38 cells (test concentration 10 μM).
`Cc1ccc(Nc2cc(C)nc(N3CCN(S(=O)(=O)c4ccc(OC(F)F)cc4)CC3)n2)cc1` [compound 28]: the “% Capsid formation at 24 h (10 μM)” value with HBV Cp is given as 96%. In addition, the “reduction in viral load vs DMSO controls” value in the experiment with AD38 cells (test concentration 1 μM), in the experiment on AD38 cells (test concentration 3 μM) and in the experiment with AD38 cells (test concentration 10 μM) was “++” in each case.
With `CNc1ccc(S(=O)(=O)N2CCN(c3nc(C)cc(Nc4ccc(C)cc4)n3)CC2)cc1` [compound 24], the “% Capsid formation at 24 h (10 μM)” value in the experiment with HBV Cp worked out at 96%. In addition, the “reduction in viral load vs DMSO controls” value with AD38 cells (test concentration 3 μM) and in the experiment with AD38 cells (test concentration 10 μM) was “++” in each case.
For `Cc1ccc(Nc2cc(C)nc(N3CCN(S(=O)(=O)c4ccc(OC(C)(C)C)cc4)CC3)n2)cc1` [compound 27], in the experiment on HBV Cp, the “% Capsid formation at 24 h (10 μM)” value came to 84%. For the same compound, the “reduction in viral load vs DMSO controls” value with AD38 cells (test concentration 3 μM) and with AD38 cells (test concentration 10 μM) was “++” each time.
